In ChEMBL document CHEMBL1201862, “PubChem BioAssay data set” (2004):
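Grown in 96-well plates, cells were treated for 48 hours with each compound at five concentrations. Insufficient inhibition: endpoint recorded as highest concentration tested. GI50: concentration for 50% inhibition of growth.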 Activity calls are given as the source filed them. No stated cut-off is given here; in the data, active = GI50 up to about 1.1 µM and inactive = higher.

Tests used:
Assay in all cases: NCI anticancer screen, dose series, 48 h
786-0 = system: 786-0
A498 = system: A498
BT-549 = system: BT-549
DU-145 = system: DU-145
HCT-116 = system: HCT-116
HOP-92 = system: HOP-92
HT-29 = system: HT-29
K562 = system: K562
LOX IMVI = system: LOX IMVI
MDA-N = system: MDA-N
NCI-H460 = system: NCI-H460
OVCAR-4 = system: OVCAR-4
SK-MEL-2 = system: SK-MEL-2
SK-MEL-5 = system: SK-MEL-5
SN12C = system: SN12C
SNB-75 = system: SNB-75
TK-10 = system: TK-10
UACC-257 = system: UACC-257
COLO 205 = system: COLO 205
MCF7 = system: MCF7

| SMILES | GI50 (786-0) | GI50 (A498) | GI50 (BT-549) | GI50 (DU-145) | GI50 (HCT-116) | GI50 (HOP-92) | GI50 (HT-29) | GI50 (K562) | GI50 (LOX IMVI) | GI50 (MDA-N) | GI50 (NCI-H460) | GI50 (OVCAR-4) | GI50 (SK-MEL-2) | GI50 (SK-MEL-5) | GI50 (SN12C) | GI50 (SNB-75) | GI50 (TK-10) | GI50 (UACC-257) | GI50 (COLO 205) | GI50 (MCF7) |
| --- | --- | --- | --- | --- | --- | --- | --- | --- | --- | --- | --- | --- | --- | --- | --- | --- | --- | --- | --- | --- |
| CN(C)CN1CSC(=S)N(CN(C)C)C1 | 43 µM (inactive) | > 100 µM (inactive) | > 100 µM (inactive) | > 100 µM (inactive) | > 100 µM (inactive) | > 100 µM (inactive) | > 100 µM (inactive) | 44.5 µM (inactive) | > 100 µM (inactive) | > 100 µM (inactive) | 42.6 µM (inactive) | > 100 µM (inactive) | 33.3 µM (inactive) | > 100 µM (inactive) | > 100 µM (inactive) | 58.2 µM (inactive) | > 100 µM (inactive) | > 100 µM (inactive) |  |  |
| C[C@@H]1[C@@H](c2ccccc2)O[B-](c2ccccc2)(c2ccccc2)[N+]1(C)C | 66.7 µM (inactive) | 67.8 µM (inactive) | 43.6 µM (inactive) | > 100 µM (inactive) | 59.3 µM (inactive) | 25.4 µM (inactive) | > 100 µM (inactive) | 33 µM (inactive) | > 100 µM (inactive) | 54.1 µM (inactive) | > 100 µM (inactive) | 56.4 µM (inactive) | > 100 µM (inactive) | 27.5 µM (inactive) | > 100 µM (inactive) |  | 54.7 µM (inactive) | > 100 µM (inactive) | 33 µM (inactive) |  |
| COc1ccc(N2C(=O)C3c4[nH]c5ccc(C)cc5c4C4CCC(c5ccccc5)CC4C3C2=O)cc1 (stereo not drawn) | 9.64 µM (inactive) | 22.9 µM (inactive) | 42.3 µM (inactive) | > 100 µM (inactive) | > 57.7 µM (inactive) | 14.6 µM (inactive) | > 100 µM (inactive) | 25.8 µM (inactive) | > 57.3 µM (inactive) |  | 39 µM (inactive) | > 32.5 µM (inactive) | 28.5 µM (inactive) | > 100 µM (inactive) | > 100 µM (inactive) | 4.02 µM (inactive) | 28.6 µM (inactive) | > 100 µM (inactive) | > 100 µM (inactive) | > 83.6 µM (inactive) |
| O=C(CCc1nnc2s/c(=C\c3ccc(Cl)cc3Cl)c(=O)n12)Nc1cc(Cl)c(Cl)cc1Cl | > 10 µM (inactive) | > 10 µM (inactive) |  |  | > 10 µM (inactive) | 24 µM (inactive) | > 10 µM (inactive) | > 10 µM (inactive) | > 10 µM (inactive) |  | > 10 µM (inactive) | > 10 µM (inactive) | > 10 µM (inactive) | > 10 µM (inactive) | > 10 µM (inactive) | 29 µM (inactive) | 55.7 µM (inactive) | > 10 µM (inactive) | > 10 µM (inactive) |  |
| O=C(/C=N/O)c1c(-c2ccccc2)[nH]c(-c2ccccc2)c1-c1ccccc1 | 54.1 µM (inactive) | 29.2 µM (inactive) | < 0.01 µM (active) | 0.927 µM (active) | 26.2 µM (inactive) | 14 µM (inactive) | 21.9 µM (inactive) | 14.1 µM (inactive) | 10.8 µM (inactive) |  | 16.7 µM (inactive) | 13.6 µM (inactive) | 11.1 µM (inactive) | 16.2 µM (inactive) | 15.8 µM (inactive) | 18.3 µM (inactive) | 21.3 µM (inactive) | 16.2 µM (inactive) | 17.2 µM (inactive) | 15.6 µM (inactive) |
| O=C(NCCN1CCCCC1)c1cccc(I)c1 | > 100 µM (inactive) | > 100 µM (inactive) | > 100 µM (inactive) |  |  | 94.2 µM (inactive) | 49.7 µM (inactive) | > 100 µM (inactive) | > 100 µM (inactive) |  | > 100 µM (inactive) | > 100 µM (inactive) |  | > 100 µM (inactive) | > 100 µM (inactive) | 55.2 µM (inactive) | > 100 µM (inactive) |  |  | > 100 µM (inactive) |
| Cc1ccc(S(=O)(=O)c2[nH]cc(/C(=C\C3CCCCC3)[N+](=O)[O-])c2C2CCCCC2)cc1 | 0.199 µM (active) |  | 0.28 µM (active) | 0.596 µM (active) | 0.216 µM (active) | 0.292 µM (active) | 0.497 µM (active) | 0.251 µM (active) | 0.202 µM (active) | 0.301 µM (active) | 1.22 µM (inactive) | 0.388 µM (active) | 0.377 µM (active) | 0.318 µM (active) | 0.211 µM (active) | 1.82 µM (inactive) | 0.544 µM (active) | 0.393 µM (active) | 0.25 µM (active) |  |
| CN1CCc2ccccc2C(C(=O)c2ccc3c(c2)OCO3)C1=O (stereo not drawn) | > 100 µM (inactive) | > 100 µM (inactive) |  |  | > 100 µM (inactive) | > 100 µM (inactive) | > 100 µM (inactive) | > 100 µM (inactive) | > 100 µM (inactive) |  | > 100 µM (inactive) | 89.3 µM (inactive) | > 100 µM (inactive) | 53.3 µM (inactive) | > 100 µM (inactive) | > 100 µM (inactive) | > 100 µM (inactive) | 90.2 µM (inactive) | > 100 µM (inactive) |  |
| COc1ccc(CCCCl)c(C2=NCCc3cc(OC)c(OC)cc32)c1 | 94.8 µM (inactive) | > 100 µM (inactive) | 37.8 µM (inactive) | > 100 µM (inactive) | 33 µM (inactive) | 20.6 µM (inactive) | 36.1 µM (inactive) | 28.3 µM (inactive) |  |  | 37.8 µM (inactive) | > 100 µM (inactive) | 39.7 µM (inactive) | 26.1 µM (inactive) | 54.3 µM (inactive) | 42.3 µM (inactive) | > 100 µM (inactive) | 42.3 µM (inactive) | 25.7 µM (inactive) | 41.5 µM (inactive) |
| CC(C)=CCC/C(C)=C/COc1c2ccoc2cc2oc(=O)ccc12 [BERGAMOTTIN] | 32.4 µM (inactive) | 23.1 µM (inactive) | 44.3 µM (inactive) |  | 23.8 µM (inactive) | 50.2 µM (inactive) | 19.7 µM (inactive) | 22.4 µM (inactive) | 21 µM (inactive) | 34.7 µM (inactive) | 29.9 µM (inactive) | 41.4 µM (inactive) | 16 µM (inactive) | 14.9 µM (inactive) | 38.3 µM (inactive) |  | 42.2 µM (inactive) | 24.7 µM (inactive) | 17.5 µM (inactive) | 19.1 µM (inactive) |
| N#CCc1n[nH]c2nc(SCc3ccccc3)nc(N3CCCCC3)c12 | 17.3 µM (inactive) | 30.5 µM (inactive) | 18.6 µM (inactive) | 18.2 µM (inactive) | 17.7 µM (inactive) | 16.6 µM (inactive) | 20.3 µM (inactive) | 18.6 µM (inactive) | 21 µM (inactive) |  | 19.6 µM (inactive) | 19.5 µM (inactive) | 20.7 µM (inactive) | 18.5 µM (inactive) | 13 µM (inactive) | 18.2 µM (inactive) | 23.1 µM (inactive) | 20.8 µM (inactive) | 17.9 µM (inactive) | 21.9 µM (inactive) |
